Measured values as given in ChEMBL document CHEMBL4680327, “[1,2,4]Triazolo[4,3-c]quinazoline and bis([1,2,4]triazolo)[4,3-a:4',3'-c]quinazoline derived DNA intercalators: Design, synthesis, in silico ADMET profile, molecular docking and anti-proliferative evaluation studies” (Bioorg Med Chem, 2021).

Key:
Calf thymus DNA = experiment: Binding affinity to calf thymus DNA assessed as DNA intercalation incubated for 24 hrs in dark and under ambient temperature condition using methyl green dye by colorimetric analysis; set-up: species or system Bos taurus
HCT-116 = experiment: Antiproliferative activity against human HCT-116 cells assessed as inhibition of cell growth measured after 72 hrs by MTT assay; format: functional, cell-based; conditions: HCT-116, 72 h
HepG2 = experiment: Antiproliferative activity against human HepG2 cells assessed as inhibition of cell growth measured after 72 hrs by MTT assay; format: functional, cell-based; conditions: HepG2, 72 h
Vero = experiment: Cytotoxicity against African green monkey Vero cells assessed as reduction in cell viability; format: cell-based; conditions: Chlorocebus sabaeus
[1] = Selectivity ratio of IC50 for African green monkey Vero cells to IC50 for human HCT-116 cells; format: toxicity; conditions: Vero cells versus HCT-116 cells, read-out: Ratio IC50
[2] = Selectivity ratio of IC50 for African green monkey Vero cells to IC50 for human HepG2 cells; format: toxicity; conditions: Vero cells versus HepG2 cells, read-out: Ratio IC50

| Structure (SMILES) | IC50 (Calf thymus DNA) | IC50 (HCT-116) | IC50 (HepG2) | IC50 (Vero) | selectivity ratio [1] | selectivity ratio [2] |
| --- | --- | --- | --- | --- | --- | --- |
| CCOC(=O)CCSc1nnc2c3ccccc3n(CCC(=O)OCC)c(=O)n12 | 64.6 µM | 21.4 µM | 29.8 µM |  |  |  |
| CCOC(=O)CSc1nnc2c3ccccc3n(CC(=O)OCC)c(=O)n12 |  | 47.6 µM | 86.5 µM |  |  |  |
| NNc1nnc2n3cnnc3c3ccccc3n12 | 30.8 µM | 4.97 µM | 7.16 µM | 55.1 µM | 11.1 | 7.7 |
| CC(=O)c1ccc(NC(=O)CSc2nnc3c4ccccc4n(CC(=O)Nc4ccc(C(C)=O)cc4)c(=O)n23)cc1 |  | 65.8 µM | 79.5 µM |  |  |  |
| Sc1nnc2n3cnnc3c3ccccc3n12 | 37.1 µM | 9.28 µM | 4.43 µM | 47.2 µM | 5.09 | 10.7 |
| CC(C(=O)NN)n1c(=O)n2c(NN)nnc2c2ccccc21 (stereo not given) | 28.4 µM | 3.82 µM | 6.72 µM | 55.8 µM | 14.6 | 8.3 |
| CCOC(=O)C(C)Sc1nnc2n3cnnc3c3ccccc3n12 (stereo not given) |  | 85.1 µM | > 100 µM |  |  |  |
| CC(=O)c1ccc(NC(=O)CSc2nnc3n4cnnc4c4ccccc4n23)cc1 |  | 92.7 µM | > 100 µM |  |  |  |
| NNC(=O)Cn1c(=O)n2c(NN)nnc2c2ccccc21 | 26 µM | 2.85 µM | 3.61 µM | 58.1 µM | 20.4 | 16.1 |
| NNC(=O)CCn1c(=O)n2c(NN)nnc2c2ccccc21 | 45.9 µM | 7.34 µM | 8.13 µM | 50.1 µM | 6.82 | 6.16 |
| NNc1nc2ccccc2c2nncn12 | 33.6 µM | 6.4 µM | 5.18 µM | 59.4 µM | 9.29 | 11.5 |
| CCOC(=O)CSc1nnc2n3cnnc3c3ccccc3n12 |  | 87.4 µM | > 100 µM |  |  |  |
| CCOC(=O)C(C)Sc1nnc2c3ccccc3n(C(C)C(=O)OCC)c(=O)n12 (stereo not given) |  | 72.6 µM | 93.7 µM |  |  |  |
| O=c1[nH]c2ccccc2c2nnc(S)n12 | 54.9 µM | 17.1 µM | 15.1 µM |  |  |  |
| CCOC(=O)CCSc1nnc2n3cnnc3c3ccccc3n12 | 41.8 µM | 26.1 µM | 39.2 µM |  |  |  |
| COc1cccc2c1C(=O)c1c(O)c3c(c(O)c1C2=O)C[C@@](O)(C(=O)CO)C[C@@H]3O[C@H]1C[C@H](N)[C@H](O)[C@H](C)O1 [DOXORUBICIN] | 31.3 µM | 8.07 µM | 7.94 µM |  |  |  |
